Calls of active or inactive are those of the source.
Key:
Paracentrotus lividus [1] = assay: Microtubule destabilizing activity in Paracentrotus lividus embryo assessed as embryo spinning at 2 fold less effective threshold concentration after 15 mins to 20 hrs; type: functional, organism-based
HOP-92 = assay: Cytotoxicity against human HOP92 cells after 48 hrs by trypan blue dye exclusion assay; type: functional; conditions: HOP-92, 48 h
A498 = assay: Cytotoxicity against human A498 cells after 48 hrs by trypan blue dye exclusion assay; type: functional; conditions: A498, 48 h
TK-10 = assay: Cytotoxicity against human TK10 cells after 48 hrs by trypan blue dye exclusion assay; type: functional; conditions: TK-10, 48 h
OVCAR-5 = assay: Cytotoxicity against human OVCAR5 cells after 48 hrs by trypan blue dye exclusion assay; type: functional; conditions: OVCAR-5, 48 h
MDA-MB-435 = assay: Cytotoxicity against human MDA-MB-435 cells after 48 hrs by trypan blue dye exclusion assay; type: functional; conditions: MDA-MB-435, 48 h
BT-549 = assay: Cytotoxicity against human BT549 cells after 48 hrs by trypan blue dye exclusion assay; type: functional; conditions: BT-549, 48 h
PC-3 = assay: Cytotoxicity against human PC3 cells after 48 hrs by trypan blue dye exclusion assay; type: functional; conditions: PC-3, 48 h
RPMI-8226 = assay: Cytotoxicity against human RPMI8226 cells after 48 hrs by trypan blue dye exclusion assay; type: functional; conditions: RPMI-8226, 48 h
UACC-62 = assay: Cytotoxicity against human UACC62 cells after 48 hrs by trypan blue dye exclusion assay; type: functional; conditions: UACC-62, 48 h
OVCAR-8 = assay: Cytotoxicity against human OVCAR8 cells after 48 hrs by trypan blue dye exclusion assay; type: functional; conditions: OVCAR-8, 48 h
CCRF-CEM = assay: Cytotoxicity against human CCRF-CEM cells after 48 hrs by trypan blue dye exclusion assay; type: functional
MCF7 = assay: Cytotoxicity against human MCF7 cells after 48 hrs by trypan blue dye exclusion assay; type: functional; conditions: MCF7, 48 h
SF-539 = assay: Cytotoxicity against human SF539 cells after 48 hrs by trypan blue dye exclusion assay; type: functional; conditions: SF-539, 48 h
LOX IMVI = assay: Cytotoxicity against human LOXIMVI cells after 48 hrs by trypan blue dye exclusion assay; type: functional
SNB-75 = assay: Cytotoxicity against human SNB75 cells after 48 hrs by trypan blue dye exclusion assay; type: functional; conditions: SNB-75, 48 h
RXF 393 = assay: Cytotoxicity against human RXF393 cells after 48 hrs by trypan blue dye exclusion assay; type: functional; conditions: RXF 393, 48 h
NCI-H226 = assay: Cytotoxicity against human NCI-H226 cells after 48 hrs by trypan blue dye exclusion assay; type: functional; conditions: NCI-H226, 48 h
EKVX = assay: Cytotoxicity against human EKVX cells after 48 hrs by trypan blue dye exclusion assay; type: functional
HCC 2998 = assay: Cytotoxicity against human HCC2998 cells after 48 hrs by trypan blue dye exclusion assay; type: functional; conditions: HCC 2998, 48 h
A549 = assay: Cytotoxicity against human A549 cells after 48 hrs by trypan blue dye exclusion assay; type: functional; conditions: A549, 48 h
Paracentrotus lividus [2] = assay: Antimitotic activity against Paracentrotus lividus embryo assessed as cleavage arrest at 2 fold less effective threshold concentration after 2.5 to 6 hrs; type: functional, organism-based
SK-MEL-28 = assay: Cytotoxicity against human SK-MEL-28 cells after 48 hrs by trypan blue dye exclusion assay; type: functional; conditions: SK-MEL-28, 48 h
OVCAR-4 = assay: Cytotoxicity against human OVCAR4 cells after 48 hrs by trypan blue dye exclusion assay; type: functional; conditions: OVCAR-4, 48 h
SK-MEL-5 = assay: Cytotoxicity against human SK-MEL-5 cells after 48 hrs by trypan blue dye exclusion assay; type: functional; conditions: SK-MEL-5, 48 h
HCT-15 = assay: Cytotoxicity against human HCT15 cells after 48 hrs by trypan blue dye exclusion assay; type: functional; conditions: HCT-15, 48 h
Malme-3M = assay: Cytotoxicity against human MALME-3M cells after 48 hrs by trypan blue dye exclusion assay; type: functional
NCI/ADR-RES = assay: Cytotoxicity against human NCI/ADR-RES cells after 48 hrs by trypan blue dye exclusion assay; type: functional
Paracentrotus lividus [3] = assay: Antimitotic activity against Paracentrotus lividus embryo assessed as concentration required to cause 100% cleavage arrest after 2.5 to 6 hrs; type: functional
ACHN = assay: Cytotoxicity against human ACHN cells after 48 hrs by trypan blue dye exclusion assay; type: functional
HOP-62 = assay: Cytotoxicity against human HOP62 cells after 48 hrs by trypan blue dye exclusion assay; type: functional; conditions: HOP-62, 48 h
SNB-19 = assay: Cytotoxicity against human SNB19 cells after 48 hrs by trypan blue dye exclusion assay; type: functional; conditions: SNB-19, 48 h
HT-29 = assay: Cytotoxicity against human HT-29 cells after 48 hrs by trypan blue dye exclusion assay; type: functional; conditions: HT-29, 48 h
UACC-257 = assay: Cytotoxicity against human UACC257 cells after 48 hrs by trypan blue dye exclusion assay; type: functional; conditions: UACC-257, 48 h
UO-31 = assay: Cytotoxicity against human UO31 cells after 48 hrs by trypan blue dye exclusion assay; type: functional; conditions: UO-31, 48 h
786-0 = assay: Cytotoxicity against human 786-0 cells after 48 hrs by trypan blue dye exclusion assay; type: functional; conditions: 786-0, 48 h
M14 = assay: Cytotoxicity against human M14 cells after 48 hrs by trypan blue dye exclusion assay; type: functional; conditions: M14, 48 h
NCI-H23 = assay: Cytotoxicity against human NCI-H23 cells after 48 hrs by trypan blue dye exclusion assay; type: functional; conditions: NCI-H23, 48 h
CAKI-1 = assay: Cytotoxicity against human CAKI-1 cells after 48 hrs by trypan blue dye exclusion assay; type: functional; conditions: CAKI-1, 48 h
SF-268 = assay: Cytotoxicity against human SF268 cells after 48 hrs by trypan blue dye exclusion assay; type: functional; conditions: SF-268, 48 h
Paracentrotus lividus [4] = assay: Microtubule destabilizing activity in Paracentrotus lividus embryo assessed as concentration required to cause 100% embryo spinning after 15 mins to 20 hrs; type: functional
HL-60(TB) = assay: Cytotoxicity against human HL-60(TB) cells after 48 hrs by trypan blue dye exclusion assay; type: functional; conditions: HL-60, 48 h
SN12C = assay: Cytotoxicity against human SN12C cells after 48 hrs by trypan blue dye exclusion assay; type: functional
SR = assay: Cytotoxicity against human SR cells after 48 hrs by trypan blue dye exclusion assay; type: functional
KM12 = assay: Cytotoxicity against human KM12 cells after 48 hrs by trypan blue dye exclusion assay; type: functional; conditions: KM12, 48 h
COLO 205 = assay: Cytotoxicity against human COLO205 cells after 48 hrs by trypan blue dye exclusion assay; type: functional; conditions: COLO 205, 48 h
SK-OV-3 = assay: Cytotoxicity against human SKOV3 cells after 48 hrs by trypan blue dye exclusion assay; type: functional; conditions: SK-OV-3, 48 h
U-251 = assay: Cytotoxicity against human U251 cells after 48 hrs by trypan blue dye exclusion assay; type: functional; conditions: U-251, 48 h
DU-145 = assay: Cytotoxicity against human DU145 cells after 48 hrs by trypan blue dye exclusion assay; type: functional; conditions: DU-145, 48 h
Paracentrotus lividus [5] = assay: Antimitotic activity against Paracentrotus lividus embryo assessed as concentration required to cause 100% cleavage alteration after 2.5 to 6 hrs; type: functional
NCI-H460 = assay: Cytotoxicity against human NCI-H460 cells after 48 hrs by trypan blue dye exclusion assay; type: functional; conditions: NCI-H460, 48 h

COc1ccc2c(c1)OC1=C(C(=O)OC1)C2c1cc(OC)c2c(c1)OCO2 (configuration not stated)
Activity (Paracentrotus lividus [1]): inactive | GI50 (HOP-92): 73 µM | GI50 (A498): 27.2 nM | GI50 (TK-10): 268 nM | GI50 (OVCAR-5): 153 nM | GI50 (MDA-MB-435): < 10 nM | GI50 (BT-549): 107 nM | GI50 (PC-3): 40.9 nM | GI50 (RPMI-8226): 48.5 nM | GI50 (UACC-62): 35 nM | GI50 (OVCAR-8): 55.6 nM | GI50 (CCRF-CEM): 37 nM | GI50 (MCF7): 29.1 nM | GI50 (SF-539): 34.4 nM | GI50 (LOX IMVI): 69.1 nM | GI50 (SNB-75): 13.9 nM | GI50 (RXF 393): 17.8 nM | GI50 (NCI-H226): 33.4 nM | GI50 (EKVX): 77.8 nM | GI50 (HCC 2998): 42.1 nM | GI50 (A549): 44.4 nM | Activity (Paracentrotus lividus [2]): inactive | GI50 (SK-MEL-28): 34.2 nM | GI50 (OVCAR-4): 59.8 nM | GI50 (SK-MEL-5): 36.9 nM | GI50 (HCT-15): 47.5 nM | GI50 (Malme-3M): > 100 µM | GI50 (NCI/ADR-RES): 18.6 nM | EC (Paracentrotus lividus [3]): 10 nM | GI50 (ACHN): 267 nM | GI50 (HOP-62): 34.9 nM | GI50 (SNB-19): 47.9 nM | GI50 (HT-29): 33.1 nM | GI50 (UACC-257): 21.3 µM | GI50 (UO-31): 57.6 nM | GI50 (786-0): 51.4 nM | GI50 (M14): 23.3 nM | GI50 (NCI-H23): 23.5 nM | GI50 (CAKI-1): 58 nM | GI50 (SF-268): 78 nM | EC (Paracentrotus lividus [4]): 100 nM | GI50 (HL-60(TB)): 30.3 nM | GI50 (SN12C): 62.5 nM | GI50 (SR): 37.8 nM | GI50 (KM12): 29.6 nM | GI50 (COLO 205): 27.8 nM | TGI (COLO 205): 69.2 nM | GI50 (SK-OV-3): 29.3 nM | GI50 (U-251): 42.7 nM | GI50 (DU-145): 35.2 nM | EC (Paracentrotus lividus [5]): 2 nM | GI50 (NCI-H460): 36.6 nM

Source: ChEMBL document CHEMBL2010711, “Synthesis and comparative evaluation of 4-oxa- and 4-aza-podophyllotoxins as antiproliferative microtubule destabilizing agents” (Bioorg Med Chem Lett, 2012)
